Data taken from patent publication US4533657A, “Analgesic dipeptide amides and method of use and composition thereof” (Sterling Drug Inc., priority 1982, dated 1985).
Where two headings read alike, the source gives them in different places.

Key:
[1] = system: guinea pig ileum longitudinal muscle with myenteric plexus; test: Guinea Pig Ileum Test (electrically stimulated longitudinal muscle, inhibition of twitch height); assay type: cell-based; conditions: ratio of IC50 of reference Met5-enkephalin (given as 100) to IC50 of test compound, same preparation, averaged over four preparations
Description: Adult male guinea pigs (Charles River, Hartley strain) weighing 300-500 g. are decapitated, and the terminal ileum is exposed by reflecting the overlying cecum, severed at the ileocecal juncture, and removed while cutting the mesenteric attachments to avoid excessive traction on the tissue. The ileum (about 30 cm. in length) is transferred to a beaker containing warm modified Krebs-Henseleit solution (118 mM sodium chloride, 4.75 mM potassium chloride, 2.45 mM calcium chloride, 1.19 mM potassium dihydrogen phosphate, 1.2 mM magnesium sulfate, 25 mM sodium bicarbonate, 11 mM glucose, 20 μM choline chloride and 0.125 μM pyrilamine maleate). The terminal (aboral) portion (about 10 cm. in length) is discarded, and segments (3-4 cm. in length) are cut from the remainder and gently slid onto a glass rod (5-6 mm. in diameter) and arranged so that the mesenteric attachment is in a straight line. A cotton swab moistened in the solution is then carefully used to separate the longitudinal muscle from the underlying circular muscle. The longitudinal muscle and adhering myenteric plexus is then gently removed from the remaining tissue with forceps.
Strips of thus prepared longitudinal muscle are mounted in a double-jacketed organ bath (5 ml.) under tension (1.0 g.), connected to isometric transducers (Grass FT 0.03), bathed in the modified Krebs-Henseleit solution described above, aerated with oxygen-carbon dioxide (95:5) and maintained at 37° C.
Stimulators (Grass S-44) are set to deliver repetitive monphasic square wave field stimulation (supramaximal voltage, 0.10 Hz., 0.25 msec. duration) through platinum ring electrodes at the top and bottom of the bath. Regular contractions of the muscle, which result from electrically-induced liberation of acetylcholine from postganglionic parasympathetic nerves, are recorded on a polygraph (Grass model 5). Following tissue equilibration (45-60 min.) and repeated washing (every 10 min.) an aqueous solution of a reference or test compound is added to the bath in a microliter volume (1.25-250 μl) and reductions in muscle twitch height are recorded. More compound can be added […] first washing the preparation.
From the results a half-maximal inhibitory concentration (IC50) value for the compound is computed by regression analysis of a linear plot of logarithm of concentration against percent of inhibition of twitch height (probits). The ratio of the […] of a reference compound to that of a test compound tested in the same preparation is the molar potency ratio. Usually four preparations are tested simultaneously by the same person (N=4), and the resulting four molar potency ratios are averaged.
The following results were obtained using the examples as test compounds and Met^5 -enkephalin as the reference compound: […]

[2] = system: Male Swiss-Webster mice; test: Mouse Acetylcholine Writhing Test; assay type: in vivo; conditions: 20 min, subcutaneous, approximate, acetylcholine 3.2 mg./kg. i.p. 20 min after dosing
Description: Male Swiss-Webster mice each weighing 18-24 g. are treated subcutaneously (10 ml./kg. injection volume) or orally with the test compound in an aqueous vehicle. Twenty minutes thereafter each mouse is injected intraperitoneally with acetylcholine (3.2 mg./kg.) in aqueous sodium chloride (0.9%). This dose of acetylcholine causes one or more characteristic writhes in the two minute period following injection in control mice which receive the aqueous vehicle not containing the test compound. […] Test compounds are screened at doses of 100 and 30 mg./kg. subcutaneously and 300 and 100 mg./kg. orally using 15 mice at each dose level. ED50 values for active compounds are estimated by probit analysis of quantal scores at four or more dose levels using 15 mice at each dose level.

[3] = system: mouse vas deferens; conditions: cited from earlier work
[4] = system: guinea pig ileum; conditions: cited from earlier work
[5] = system: opiate receptor; conditions: rat brain membranes; cited from earlier work
[6] = system: rat; conditions: rat tail flick, cited from earlier work

**Q.** Which “Average Molar Potency Ratio” value [1] does the source give for C[C@@H](NC(=O)[C@@H](N)Cc1ccc(O)cc1)C(=O)NCCc1ccccc1.Cl.O [Example 1, L-tyrosyl-N-(2-phenylethyl)-D-alaninamide monohydrochloride hydrate (4:5)] here?
**A.** 14

**Q.** Which “Average Molar Potency Ratio” value [1] does the source give for C[C@@H](NC(=O)[C@@H](N)Cc1ccc(O)cc1)C(=O)NCCCCc1ccccc1.Cl [Example 5, L-tyrosyl-N-(4-phenylbutyl)-D-alaninamide monohydrochloride] here?
**A.** 12

**Q.** Which “Average Molar Potency Ratio” value [1] does the source give for CCN(CCCc1ccccc1)C(=O)[C@@H](C)NC(=O)[C@@H](N)Cc1ccc(O)cc1.Cl [Example 4, L-tyrosyl-N-ethyl-N-(3-phenylpropyl)-D-alaninamide monohydrochloride] here?
**A.** 4

**Q.** What about the ED50 [2] of the same compound?
**A.** > 30 mg/kg

**Q.** With C[C@H](CCc1ccccc1)NC(=O)[C@@H](C)NC(=O)[C@@H](N)Cc1ccc(O)cc1.Cl [Example 9, L-tyrosyl-N-(1-R-methyl-3-phenylpropyl)-D-alaninamide monohydrochloride] as the compound, how does the “Average Molar Potency Ratio” value [1] read?
**A.** 12

**Q.** With C[C@@H](NC(=O)[C@@H](N)Cc1ccc(O)cc1)C(=O)NCCNCCc1ccccc1 [HTyrD-AlaNH(CH2)2 NH(CH2)2 Phenyl] as the compound, how does the “potency relative to Met-enkephalin” value [3] read?
**A.** < 1%

**Q.** And the “potency relative to Met-enkephalin” value [4]?
**A.** < 1%

**Q.** Which results are given for C[C@@H](NC(=O)[C@@H](N)Cc1ccc(O)cc1)C(N)=O [H-Tyr-D-Ala-NH2]?
**A.** times less affinity than morphine [5]: 830 times; times less potent than morphine ([6]; intravenously): greater than 10 times; times less potent than morphine ([6]; intraventricularly): 200 times

**Q.** Which “Average Molar Potency Ratio” value [1] does the source give for CSCCCN(CCCc1ccccc1)C(=O)[C@@H](C)NC(=O)[C@@H](N)Cc1ccc(O)cc1.CSCCCN(CCCc1ccccc1)C(=O)[C@@H](C)NC(=O)[C@@H](N)Cc1ccc(O)cc1.Cl.Cl.O [Example 10, L-tyrosyl-N-[3-(methylthio)propyl]-N-(3-phenylpropyl)-D-alaninamide monhydrochloride hemihydrate] here?
**A.** 15

**Q.** Which “Average Molar Potency Ratio” value [1] does the source give for C[C@@H](NC(=O)[C@@H](N)Cc1ccc(O)cc1)C(=O)NCCCCCc1ccccc1.Cl.O [Example 6, L-tyrosyl-N-(5-phenylpentyl)-D-alaninamide monohydrochloride monohydrate] here?
**A.** 30

**Q.** For C[C@@H](NC(=O)[C@@H](N)Cc1ccc(O)cc1)C(=O)N(C)CCCc1ccccc1.Cl.O [Example 2, L-tyrosyl-N-methyl-N-(3-phenylpropyl)-D-alaninamide monohydrochloride monohydrate], which “Average Molar Potency Ratio” value [1] is on record?
**A.** 9

**Q.** And the ED50 [2]?
**A.** > 10 mg/kg

**Q.** With Met^5 -enkephalin [reference compound] as the compound, how does the “Average Molar Potency Ratio” value [1] read?
**A.** 100

**Q.** For C[C@@H](CCc1ccccc1)NC(=O)[C@@H](C)NC(=O)[C@@H](N)Cc1ccc(O)cc1.Cl [Example 8, L-tyrosyl-N-(1-S-methyl-3-phenylpropyl)-D-alaninamide monohydrochloride], which “Average Molar Potency Ratio” value [1] is on record?
**A.** 115

**Q.** Which “Average Molar Potency Ratio” value [1] does the source give for C[C@@H](NC(=O)[C@@H](N)Cc1ccc(O)cc1)C(=O)N(CCCc1ccccc1)CCN(C)C.Cl.Cl [Example 7, L-tyrosyl-N-[2-(dimethylamino)ethyl]-N-(3-phenylpropyl)-D-alaninamide dihydrochloride] here?
**A.** 4

**Q.** For C[C@@H](NC(=O)[C@@H](N)Cc1ccc(O)cc1)C(=O)N(CCCc1ccccc1)CCC[S+](C)[O-].Cl (stereo partly drawn) [Example 11, L-tyrosyl-N-[3-(methylsulfinyl)propyl]-N-(3-phenylpropyl)-D-alaninamide monohydrochloride], which “Average Molar Potency Ratio” value [1] is on record?
**A.** 3

**Q.** Which “Average Molar Potency Ratio” value [1] does the source give for “L-tyrosyl-N-(3-phenylpropyl)-D-alaninamide monohydrochloride sesquihydrate [Example 3]” here?
**A.** 117
